From ChEMBL document CHEMBL3044763, “Inhibitory Activities of Rhodanine Derivatives on Plant Growth” (Biosci Biotechnol Biochem, 1996) come the findings set out here.

Holding throughout (type): functional
The subject of test [1] is Brassica rapa subsp. oleifera. Put plainly: Growth inhibition of Brassica rapa subsp. oleifera assessed as chlorophyll b level at 3 x 10^-4 M after 7 days. Also noted: scale not given: the % may be the effect or the level left.
Test [2] has as its system Brassica rapa subsp. oleifera. Put plainly: Growth inhibition of Brassica rapa subsp. oleifera assessed as chlorophyll b level at 1 x 10^-4 M after 7 days. Also noted: scale not given: the % may be the effect or the level left.
The subject of test [3] is Brassica rapa subsp. oleifera. Put plainly: Growth inhibition of Brassica rapa subsp. oleifera assessed as chlorophyll a level at 3 x 10^-5 M after 7 days. Also noted: scale not given: the % may be the effect or the level left.
For test [4], the system named is Brassica rapa subsp. oleifera. Put plainly: Growth inhibition of Brassica rapa subsp. oleifera assessed as chlorophyll a level at 5 x 10^-5 M after 7 days. Also noted: scale not given: the % may be the effect or the level left.
In test [5] the test system is Brassica rapa subsp. oleifera. Put plainly: Growth inhibition of Brassica rapa subsp. oleifera assessed as total chlorophyll level at 5 x 10^-5 M after 7 days. Also noted: scale not given: the % may be the effect or the level left.
Test [6] deals with Brassica rapa subsp. oleifera. Nature of the test: Growth inhibition of Brassica rapa subsp. oleifera assessed as total chlorophyll level at 3 x 10^-5 M after 7 days. Also noted: scale not given: the % may be the effect or the level left.
Test [7] relates to Brassica rapa subsp. oleifera. Nature of the test: Growth inhibition of Brassica rapa subsp. oleifera assessed as total chlorophyll level at 1 x 10^-4 M after 7 days. Also noted: scale not given: the % may be the effect or the level left.
The test system of test [8] is Brassica rapa subsp. oleifera. Nature of the test: Growth inhibition of Brassica rapa subsp. oleifera assessed as total chlorophyll level at 3 x 10^-4 M after 7 days. Also noted: scale not given: the % may be the effect or the level left.
The test system of test [9] is Brassica rapa subsp. oleifera. Nature of the test: Growth inhibition of Brassica rapa subsp. oleifera assessed as root growth at 3 x 10^-5 M after 7 days.
The subject of test [10] is Brassica rapa subsp. oleifera. Nature of the test: Growth inhibition of Brassica rapa subsp. oleifera assessed as root growth at 5 x 10^-5 M after 7 days.
Test [11] relates to Brassica rapa subsp. oleifera. Nature of the test: Growth inhibition of Brassica rapa subsp. oleifera assessed as root growth at 1 x 10^-4 M after 7 days.
The subject of test [12] is Brassica rapa subsp. oleifera. Put plainly: Growth inhibition of Brassica rapa subsp. oleifera assessed as root growth at 3 x 10^-4 M after 7 days.
Test [13] concerns Brassica rapa subsp. oleifera. Put plainly: Growth inhibition of Brassica rapa subsp. oleifera assessed as chlorophyll b level at 3 x 10^-5 M after 7 days. Also noted: scale not given: the % may be the effect or the level left.
The subject of test [14] is Brassica rapa subsp. oleifera. Nature of the test: Growth inhibition of Brassica rapa subsp. oleifera assessed as chlorophyll b level at 5 x 10^-5 M after 7 days. Also noted: scale not given: the % may be the effect or the level left.
In test [15] the test system is Brassica rapa subsp. oleifera. Nature of the test: Growth inhibition of Brassica rapa subsp. oleifera assessed as chlorophyll a level at 1 x 10^-4 M after 7 days. Also noted: scale not given: the % may be the effect or the level left.
Test [16] concerns Brassica rapa subsp. oleifera. Put plainly: Growth inhibition of Brassica rapa subsp. oleifera assessed as chlorophyll a level at 3 x 10^-4 M after 7 days. Also noted: scale not given: the % may be the effect or the level left.

As to `O=C([O-])COc1ccc(Cl)cc1Cl.[Na+]`, the Activity in [1] worked out at 1.68%; in [2], 6.1%; in test [3], 17.82%; in [4] it was 11.51%; in [5] it was 16.35%; in [6], 25.12%. Also, the Activity in test [7] is 18.67%; in test [8] it was 4.82%; in test [11] it was 2.6 mm; in [12] it was 2.1 mm; in test [13], 7.32%; in [14], 4.84%. Besides, the Activity came out at 12.57% in test [15] and 3.16% in test [16]. Also, the figures for the Root length in [9] and in test [10] were 3.3 mm and 3.1 mm, respectively.
